From paper PMC12748266, “Testing antimicrobial peptides inhibiting protein synthesis in living E. coli and K. pneumoniae using bio-orthogonal non-canonical amino-acid tagging” (Frontiers in Microbiology, 2025) come the findings set out here.

No end group written: not given here.

For test [1], the system named is K. pneumoniae ATCC 700603. The experiment in a line: Cell membrane permeabilization, propidium iodide flow cytometry. The following applies: compound at its MIC, 40 min, 5 × 10^6 CFU/mL, supplemented M9; mean of n = 3. Format: cell-based, Klebsiella pneumoniae. The method, then: (§1) An overnight culture of E. coli ATCC 25922, or of K. pneumoniae ATCC 700603, prepared as described above, was diluted to a final concentration of 5 × 10^6 CFU/mL and allowed to adjust for 30 min at 37 °C under shaking. Membrane permeabilization of bacteria was then assessed by incubating bacteria at 37 °C, in a final volume of 1 mL, with varying concentrations of each peptide or antibiotic used for the BONCAT assay. 5 min before the ending of the selected incubation time (40 min), propidium iodide probe was added to the samples to a final concentration of 10 μg/mL before analysis using a flow cytometer. A positive control consisted of E. coli cells dehydrated with ethanol (as described above), while untreated cells were used as negative control. The fluorescence of untreated cells was used to establish the gating for positive PI-stained cells. Fixed bacterial cells, subjected to the click chemistry reaction to link the Alexa Fluor azide 488 probe, were analysed by flow cytometry and, among the gates-selected ones, only those that tested positive for Propidium Iodide, and thus permeabilized, were considered for the calculation of the mean fluorescence intensity (MFI) of the Alexa Fluor azide 488.
(§2) Samples were analyzed by an Attune NxT® (ThermoFisher) equipped with a blue laser (488 nm) and photomultiplier tubes (PMTs) BL1 (525/50) and BL3 (695/40) to collect fluorescence. All parameters were set in logarithmic scale and the signals were recorded as Area. Forward scattering (FSC) was set to 300 mV, side scattering (SSC) to 350 mV and thresholds to 0.2 for FSC and 0.5 for SSC. The compensation matrix was performed according to the tool software. Hierarchical gates and acquisition flow rate (200 μL/min) were set to avoid coincident events. The files were saved as FCS 3.1 and analysed by FCS Express De Novo software v7. Flow cytometry data are presented as means ± SD from three independent experiments (n = 3).
Background: A flow cytometer gives signals particle by particle.

The test system of test [2] is E. coli ATCC 25922. Briefly: BONCAT: HPG incorporation into newly synthesized proteins, flow cytometry. The following applies: compound at MIC; for Fluorescence Intensity (% of Control): 10 min pre-incubation then 30 min HPG, untreated = 100%, mean, n ≥ 3; for Decrease in fluorescence compared to untreated bacteria: 40 min total incubation (10 min + 30 min HPG). Format: cell-based, Escherichia coli. The method, then: We used a modified protocol from [Lindivat et al. (2020)]. Briefly, overnight cultures of E. coli ATCC 25922 or K. pneumoniae ATCC 700603, prepared as described above, were diluted to a final concentration of 5×10^6 CFU/mL and allowed to adjust for 30 min at 37 °C. The culture was then incubated at 37 °C in the dark for 10 or 30 min in the presence or absence of each peptide or antibiotic at various concentrations, with a final volume of 1 mL. At this point, only in certain specified experimental assays, the compounds were removed from the supernatant by centrifugation (16,000 × g for 5 min) and bacteria were washed and resuspended in fresh supplemented M9 medium. Then, 32 μL of a 500 μM homopropargylglycine (HPG) solution were added to each sample, resulting in a final concentration of 16 μM in a finale volume of 1 mL. Also included in each assay were two untreated controls containing only bacteria and bacteria treated with 16 μM HPG alone, respectively. All samples were then incubated at 37 °C in the dark for 30 min. After incubation, samples were washed once with 1X filtered Phosphate Buffered Saline (PBS) (centrifuged at 16,000 x g for 5 min) and resuspended in PBS. After washing, samples were fixed with formaldehyde (Sigma Aldrich, USA) to a final concentration of 3% in 1 mL for 1 h at 25 °C. Subsequently, the samples were centrifuged at 16,000 x g for 5 min and resuspended in 1 mL of PBS. If not analysed immediately, the fixed samples were stored at 4 °C prior to performing the click chemistry reaction. Samples were centrifugated at 16,000 x g for 5 min and bacteria cells were dehydrated by ethanol that was added sequentially to achieve a final concentration of 50% (v/v) (3 min of incubation), 80% (v/v) (3 min of incubation), and 95% (v/v) (3 min of incubation). After dehydration, the samples were centrifugated (16,000 × g, 5 min) and resuspended in PBS. For cell analysis by SDS-PAGE, the following variations were implemented: bacterial cells were diluted in supplemented M9 medium to a final density of ~ 1 × 10^9 CFU/mL, and HPG was added to the samples at a final concentration of 160 μM. Bacteria were incubated with HPG for 0, 15, 30, 60, or 120 min at 37 °C in the dark.
The click reaction was carried out according to [Rostovtsev et al. (2002)]. 15 μL of a pre-mix solution (prepared as described above) were added to each sample containing fixed bacteria that had incorporated HPG (30 μL of pre-mix solution in case of samples prepared for SDS-PAGE analysis), resulting in the following final concentrations in each sample: 0.1 mM copper sulfate, 0.5 mM Tris (3-hydroxypropyltriazolylmethyl)amine (THPTA), and 2.5 μM Alexa Fluor azide 488. Additionally, 50 μL of freshly prepared 100 mM sodium ascorbate and 50 μL of 100 mM aminoguanidine were added (100 μL in case of samples prepared for SDS-PAGE analysis), bringing the final volume to 1 mL. The samples were gently inverted once to mix and incubated for 30 min in the dark at 25 °C. Finally, each sample was washed with PBS once (centrifuged at 16,000 × g for 5 min) and resuspended in 1 mL PBS.
as §1, with “Fixed bacterial cells, subjected to the click chemistry reaction to link the Alexa Fluor azide 488 probe, were analysed by flow cytometry and, among the gates-selected ones, only those that tested positive for Propidium Iodide, and thus permeabilized, were considered for the calculation of the mean fluorescence intensity (MFI) of the Alexa Fluor azide 488.” left out

For test [3], the system named is E. coli ATCC 25922. The experiment in a line: Cell membrane permeabilization, propidium iodide flow cytometry. Format: cell-based, Escherichia coli. The conditions noted are these: compound at its MIC, 40 min, 5 × 10^6 CFU/mL, supplemented M9, mean of n = 3. As for the experimental part: as §1, with “Membrane” for “An overnight culture of E. coli ATCC 25922, or of K. pneumoniae ATCC 700603, prepared as described above, was diluted to a final concentration of 5 × 10^6 CFU/mL and allowed to adjust for 30 min at 37 °C under shaking. Membrane”
as §2

As for `CO[C@H]1/C=C/O[C@@]2(C)Oc3c(C)c(O)c4c(O)c(c(/C=N/N5CCN(C)CC5)c(O)c4c3C2=O)NC(=O)/C(C)=C\C=C\[C@H](C)[C@H](O)[C@@H](C)[C@@H](O)[C@@H](C)[C@H](OC(C)=O)[C@@H]1C` [RIF, Rifampicin], the “Membrane permeabilization (% PI +cells)” value is recorded as less than 1% in test [1], less than 1% with E. coli ATCC 25922 [3] and 0% in the test with E. coli ATCC 25922 [3] (listed as Rifampin). Moreover, the “Fluorescence Intensity (% of Control)” value in the test with E. coli ATCC 25922 [2] is 102 % of Control. The “Decrease in fluorescence compared to untreated bacteria” value in the test on E. coli ATCC 25922 [2] is on record as “did not affect fluorescence intensity”.
Regarding RRIRPRPPRLPRPRPR [Bac7(1–16)], the “Membrane permeabilization (% PI +cells)” value (in test [1]; in the test on E. coli ATCC 25922 [3]) was less than 1% in each case. Moreover, the “Fluorescence Intensity (% of Control)” value with E. coli ATCC 25922 [2] is reported as 18 % of Control.
Consider `O=C(N[C@H](CO)[C@H](O)c1ccc([N+](=O)[O-])cc1)C(Cl)Cl` [CHL, Chloramphenicol], for which, in the test with E. coli ATCC 25922 [2], the “Fluorescence Intensity (% of Control)” value was 20 % of Control and the “Decrease in fluorescence compared to untreated bacteria” value came out at 80%. Besides, the “Membrane permeabilization (% PI +cells)” value in the test with E. coli ATCC 25922 [3] is reported as less than 1%. Also, the “Membrane permeabilization (% PI +cells)” value in the test on E. coli ATCC 25922 [3] (listed as Chloramphenicol) is 0%.
For the compound “RRIRPRPPRLPRPRPRPLPFPRPGPRPIPRPLPFP [Bac7(1–35)]”, the “Membrane permeabilization (% PI +cells)” value (in test [1]; in the test on E. coli ATCC 25922 [3]) was less than 1% each time. Besides, the “Fluorescence Intensity (% of Control)” value in the test on E. coli ATCC 25922 [2] is listed as 14 % of Control.
